In US20180036289A1 (Gilead Sciences, Inc., priority 2016, published 2018):

How the values were obtained:
[1] = tested on: SR; assay: Cell proliferation assay (ATPlite), drug with vs without cobicistat; type: cell-based; details: SR cell line; 120 hours incubation
Procedure: (§1) All cell lines were obtained from the American Type Culture Collection (ATCC) Manassas, Va. (US). Master and working cell banks (MCB and WCB) were prepared by subculturing in ATCC-recommended media and freezing protocols (www.atcc.org). Cell line stocks for the assays were prepared from the WCB. The MCB, WCBs and assay stocks were prepared within respectively 3, 6 and 9 passages of the ATCC vial.
(§2) Solid powders of reference compounds were weighed on a calibrated balance and dissolved in 100% DMSO. DMSO samples were stored at room temperature. At the day of the experiment, the compound stock was diluted in 3.16 fold steps in 100% DMSO to obtain a 9-point dilution series. This was further diluted 31.6 times in 20 mM sterile Hepes buffer pH 7.4. A volume of 5 μl was transferred to the cells to generate a test concentration range from 3.16×10^−5M to 3.16×10^−9 M in duplicate. The final DMSO concentration during incubation was […] in all wells.
(§3) An assay stock was thawed and diluted in its ATCC recommended medium and dispensed in a 384-well plate, depending on the cell line used, at a concentration of 200-3200 cells per well in 45 μl medium. For each used cell line the optimal cell density is used. The margins of the plate were filled with phosphate-buffered saline. Plated cells were incubated in a humidified atmosphere of 5% CO2 at 37° C. After 24 hours, 5 μl of compound dilution was added and plates were further incubated for another 120 hours. After 120 hours, 25 μl of ATPlite 1Step™ (PerkinElmer) solution was added to each well, and subsequently shaken for 2 minutes. After 10 minutes of incubation in the dark, the luminescence was recorded on an Envision multimode reader (PerkinElmer).
(§4) IC50s were calculated by non-linear regression using IDBS XLfit 5. The percentage growth after 120 h (%-growth) was calculated as follows: 100%×(luminescencet=120h/luminescenceuntreated,t=120h). This was fitted to the ^10log compound concentration (conc) by a 4-parameter logistics curve: %−growth=bottom+(top−bottom)/(1+10^(log IC50-conc)*hill)), where hill is the Hill-coefficient, and bottom and top the asymptotic minimum and maximum cell growth that the compound allows in that assay.

[2] = tested on: A-549; assay: as above; type: cell-based; details: A-549 cell line; 120 hours incubation
Procedure: as §1, §2, §3, §4

[3] = tested on: OVCAR-3; assay: as above; type: cell-based; details: OVCAR-3 cell line; 120 hours incubation
Procedure: as §1, §2, §3, §4

[4] = tested on: AN3 CA; assay: as above; type: cell-based; details: AN3 CA cell line; 120 hours incubation
Procedure: as §1, §2, §3, §4

[5] = tested on: SHP-77; assay: as above; type: cell-based; details: SHP-77 cell line; 120 hours incubation
Procedure: as §1, §2, §3, §4

[6] = tested on: CCRF-CEM; assay: as above; type: cell-based; details: CCRF-CEM cell line; 120 hours incubation
Procedure: as §1, §2, §3, §4

[7] = tested on: HCT-15; assay: as above; type: cell-based; details: HCT-15 cell line; 120 hours incubation
Procedure: as §1, §2, §3, §4

[8] = tested on: A-498; assay: as above; type: cell-based; details: A-498 cell line; 120 hours incubation
Procedure: as §1, §2, §3, §4

[9] = tested on: RPMI-7951; assay: as above; type: cell-based; details: RPMI-7951 cell line; 120 hours incubation
Procedure: as §1, §2, §3, §4

[10] = tested on: AU-565; assay: as above; type: cell-based; details: AU-565 cell line; 120 hours incubation
Procedure: as §1, §2, §3, §4

[11] = tested on: DoTc2 4510; assay: as above; type: cell-based; details: DoTc2 4510 cell line; 120 hours incubation
Procedure: as §1, §2, §3, §4

[12] = tested on: MeWo; assay: as above; type: cell-based; details: MeWo cell line; 120 hours incubation
Procedure: as §1, §2, §3, §4

[13] = tested on: RT4; assay: as above; type: cell-based; details: RT4 cell line; 120 hours incubation
Procedure: as §1, §2, §3, §4

[14] = tested on: HCT 116; assay: as above; type: cell-based; details: HCT 116 cell line; 120 hours incubation
Procedure: as §1, §2, §3, §4

[15] = tested on: J82; assay: as above; type: cell-based; details: J82 cell line; 120 hours incubation
Procedure: as §1, §2, §3, §4

[16] = tested on: PA-1; assay: as above; type: cell-based; details: PA-1 cell line; 120 hours incubation
Procedure: as §1, §2, §3, §4

[17] = tested on: NCI-H82; assay: as above; type: cell-based; details: NCI-H82 cell line; 120 hours incubation
Procedure: as §1, §2, §3, §4

[18] = tested on: U-87 MG; assay: as above; type: cell-based; details: U-87 MG cell line; 120 hours incubation
Procedure: as §1, §2, §3, §4

[19] = tested on: SJCRH30; assay: as above; type: cell-based; details: SJCRH30 cell line; 120 hours incubation
Procedure: as §1, §2, §3, §4

[20] = tested on: Hs 578T; assay: as above; type: cell-based; details: Hs 578T cell line; 120 hours incubation
Procedure: as §1, §2, §3, §4

[21] = tested on: C-33 A; assay: as above; type: cell-based; details: C-33 A cell line; 120 hours incubation
Procedure: as §1, §2, §3, §4

[22] = tested on: A375; assay: as above; type: cell-based; details: A375 cell line; 120 hours incubation
Procedure: as §1, §2, §3, §4

[23] = tested on: MIA PaCa-2; assay: as above; type: cell-based; details: MIA PaCa-2 cell line; 120 hours incubation
Procedure: as §1, §2, §3, §4

[24] = tested on: LoVo; assay: as above; type: cell-based; details: LoVo cell line; 120 hours incubation
Procedure: as §1, §2, §3, §4

[25] = tested on: U-2 OS; assay: as above; type: cell-based; details: U-2 OS cell line; 120 hours incubation
Procedure: as §1, §2, §3, §4

[26] = tested on: Daoy; assay: as above; type: cell-based; details: Daoy cell line; 120 hours incubation
Procedure: as §1, §2, §3, §4

[27] = tested on: MG-63; assay: as above; type: cell-based; details: MG-63 cell line; 120 hours incubation
Procedure: as §1, §2, §3, §4

[28] = tested on: COLO 205; assay: as above; type: cell-based; details: COLO 205 cell line; 120 hours incubation
Procedure: as §1, §2, §3, §4

[29] = tested on: SK-N-AS; assay: as above; type: cell-based; details: SK-N-AS cell line; 120 hours incubation
Procedure: as §1, §2, §3, §4

[30] = tested on: TT; details: TT cell line; 120 hours incubation
Procedure: as §1, §2, §3, §4

SMILES	Fold change in IC50 (IC50 [Drug + Cobicistat]/IC50 [Drug]) [1] [fold]	Fold change in IC50 (IC50 [Drug + Cobicistat]/IC50 [Drug]) [2] [fold]	Fold change in IC50 (IC50 [Drug + Cobicistat]/IC50 [Drug]) [3] [fold]	Fold change in IC50 (IC50 [Drug + Cobicistat]/IC50 [Drug]) [4] [fold]	Fold change in IC50 (IC50 [Drug + Cobicistat]/IC50 [Drug]) [5] [fold]	Fold change in IC50 (IC50 [Drug + Cobicistat]/IC50 [Drug]) [6] [fold]	Fold change in IC50 (IC50 [Drug + Cobicistat]/IC50 [Drug]) [7] [fold]	Fold change in IC50 (IC50 [Drug + Cobicistat]/IC50 [Drug]) [8] [fold]	Fold change in IC50 (IC50 [Drug + Cobicistat]/IC50 [Drug]) [9] [fold]	Fold change in IC50 (IC50 [Drug + Cobicistat]/IC50 [Drug]) [10] [fold]	Fold change in IC50 (IC50 [Drug + Cobicistat]/IC50 [Drug]) [11] [fold]	Fold change in IC50 (IC50 [Drug + Cobicistat]/IC50 [Drug]) [12] [fold]	Fold change in IC50 (IC50 [Drug + Cobicistat]/IC50 [Drug]) [13] [fold]	Fold change in IC50 (IC50 [Drug + Cobicistat]/IC50 [Drug]) [14] [fold]	Fold change in IC50 (IC50 [Drug + Cobicistat]/IC50 [Drug]) [15] [fold]	Fold change in IC50 (IC50 [Drug + Cobicistat]/IC50 [Drug]) [16] [fold]	Fold change in IC50 (IC50 [Drug + Cobicistat]/IC50 [Drug]) [17] [fold]	Fold change in IC50 (IC50 [Drug + Cobicistat]/IC50 [Drug]) [18] [fold]	Fold change in IC50 (IC50 [Drug + Cobicistat]/IC50 [Drug]) [19] [fold]	Fold change in IC50 (IC50 [Drug + Cobicistat]/IC50 [Drug]) [20] [fold]	other results
Cc1nc(Nc2ncc(C(=O)Nc3c(C)cccc3Cl)s2)cc(N2CCN(CCO)CC2)n1 [dasatinib]	1.9	1.0	1.6	1.2	1.4	1.3	2.6	1.4	3.0	8.4	3.0	1.0	2.5	3.4	2.1	2.6	1.1	1.1	1.4	2.5	Fold change in IC50 (IC50 [Drug + Cobicistat]/IC50 [Drug]) [21]: 1.2 fold; Fold change in IC50 (IC50 [Drug + Cobicistat]/IC50 [Drug]) [22]: 1.3 fold; Fold change in IC50 (IC50 [Drug + Cobicistat]/IC50 [Drug]) [23]: 2.2 fold; Fold change in IC50 (IC50 [Drug + Cobicistat]/IC50 [Drug]) [24]: 1.0 fold; Fold change in IC50 (IC50 [Drug + Cobicistat]/IC50 [Drug]) [25]: 4.0 fold; Fold change in IC50 (IC50 [Drug + Cobicistat]/IC50 [Drug]) [26]: 3.2 fold; Fold change in IC50 (IC50 [Drug + Cobicistat]/IC50 [Drug]) [27]: 2.9 fold; Fold change in IC50 (IC50 [Drug + Cobicistat]/IC50 [Drug]) [28]: 1.2 fold; Fold change in IC50 (IC50 [Drug + Cobicistat]/IC50 [Drug]) [29]: 1.6 fold; Fold change in IC50 (IC50 [Drug + Cobicistat]/IC50 [Drug]) [30]: 0.8 fold
CC(=O)O[C@@]12CO[C@@H]1C[C@H](O)[C@@]1(C)C(=O)[C@H](O)C3=C(C)[C@@H](OC(=O)[C@H](O)[C@@H](NC(=O)OC(C)(C)C)c4ccccc4)C[C@@](O)([C@@H](OC(=O)c4ccccc4)[C@H]21)C3(C)C [docetaxel]	3.6	1.1	2.2	2.1	3.5	3.6	2.8	4.2	3.3	3.2	5.3	2.3	4.4	1.9	3.5	5.2	2.2	2.0	4.1	1.9	Fold change in IC50 (IC50 [Drug + Cobicistat]/IC50 [Drug]) [21]: 1.5 fold; Fold change in IC50 (IC50 [Drug + Cobicistat]/IC50 [Drug]) [22]: 2.8 fold; Fold change in IC50 (IC50 [Drug + Cobicistat]/IC50 [Drug]) [23]: 4.2 fold; Fold change in IC50 (IC50 [Drug + Cobicistat]/IC50 [Drug]) [24]: 2.0 fold; Fold change in IC50 (IC50 [Drug + Cobicistat]/IC50 [Drug]) [25]: 4.3 fold; Fold change in IC50 (IC50 [Drug + Cobicistat]/IC50 [Drug]) [26]: 6.4 fold; Fold change in IC50 (IC50 [Drug + Cobicistat]/IC50 [Drug]) [27]: 3.3 fold; Fold change in IC50 (IC50 [Drug + Cobicistat]/IC50 [Drug]) [28]: 3.9 fold; Fold change in IC50 (IC50 [Drug + Cobicistat]/IC50 [Drug]) [29]: 3.3 fold; Fold change in IC50 (IC50 [Drug + Cobicistat]/IC50 [Drug]) [30]: 3.6 fold
